This test deals with p38α MAPK (Homo sapiens, UniProt Q16539). Nature of the test: microscale thermophoresis. It counts as binding. (In general: In MST a laser heats a spot of the sample, and binding alters the fluorescence response.)

By Kd is commonly meant a measure of binding affinity in units of concentration. Low values mean tighter binding, high ones weaker binding.

p38α MAPK, sequence (Q16539 2-360): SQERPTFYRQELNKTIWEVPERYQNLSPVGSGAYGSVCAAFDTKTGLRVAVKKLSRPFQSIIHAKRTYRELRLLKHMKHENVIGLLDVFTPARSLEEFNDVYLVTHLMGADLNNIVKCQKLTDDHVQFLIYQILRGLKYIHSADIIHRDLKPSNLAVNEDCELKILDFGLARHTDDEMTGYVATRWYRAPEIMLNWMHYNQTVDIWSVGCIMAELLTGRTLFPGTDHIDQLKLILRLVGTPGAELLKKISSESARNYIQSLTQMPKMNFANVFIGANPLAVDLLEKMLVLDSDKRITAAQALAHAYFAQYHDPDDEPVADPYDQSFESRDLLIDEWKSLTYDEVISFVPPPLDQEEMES

In turn, `COC(=O)[C@@]12OC[C@]34[C@H]([C@@H](O)[C@@H]1O)[C@@]1(C)CC(=O)C(O)=C(C)[C@@H]1C[C@H]3OC(=O)[C@H](OC(=O)CC(C)C)[C@@H]24` [bruceine A] showed a dissociation constant Kd of 31 nM.

These data come from publication PMC8220105 (Computational and Structural Biotechnology Journal, 2021).
